# Laboratory results published in US9029325B2, “Amylin analogues and pharmaceutical compositions thereof” (Novo Nordisk A/S, priority 2011, dated 2015).
# Starred links: 1 amine or outer side, 2 acyl side, 3 side chain; linkers in the order of their positions; H or OH if unused. Positions of bridges follow the written chain, without caps; N, C: chain ends. Residues, ends and D or L forms follow the SMILES beside them. *: point of attachment. C20 diacid = O=C(O)CCCCCCCCCCCCCCCCCCC(=O)*; C18 diacid = O=C(O)CCCCCCCCCCCCCCCCC(=O)*; γGlu = O=C(O)[C@H](CCC(=O)[*:2])N[*:1]
# Test: Assay (I) efficacy testing on appetite (food intake), ad libitum fed rat model
# Assay type: in vivo, Sprague Dawley (SD) rats
# Settings: 3 nmol/kg
# Procedure, shortened: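 Ad libitum fed SD rats (200-250 g) on a reversed light cycle, housed individually, received a single 0.01-3 mg/kg dose ip, po or sc just before lights-off. Individual food intake recorded hourly for 7 h, then at 24 h and sometimes 48 h, versus vehicle; Grubbs outliers excluded.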
Compound,Food intake reduction 0-24 h 3 nmol/kg (%),Food intake reduction 24-48 h 3 nmol/kg (%)
CC[C@H](C)[C@H](NC(=O)[C@@H]1CCCN1C(=O)CNC(=O)[C@H](Cc1ccccc1)NC(=O)[C@H](CC(N)=O)NC(=O)[C@H](CC(N)=O)NC(=O)[C@H](CO)NC(=O)[C@H](CO)NC(=O)[C@H](Cc1c[nH]cn1)NC(=O)[C@H](Cc1c[nH]cn1)NC(=O)[C@H](CC(C)C)NC(=O)[C@H](Cc1ccccc1)NC(=O)[C@H](CCC(=O)O)NC(=O)[C@H](C)NC(=O)[C@H](CC(C)C)NC(=O)[C@H](CCCNC(=N)N)NC(=O)[C@H](CCC(N)=O)NC(=O)[C@@H](NC(=O)[C@H](C)NC(=O)[C@@H]1CSSC[C@H](NC(=O)[C@H](CCCCN)NC(=O)[C@H](CCC(=O)O)NC(=O)CC[C@H](NC(=O)CCCCCCCCCCCCCCCCCCC(=O)O)C(=O)O)C(=O)N[C@@H](CC(N)=O)C(=O)N[C@@H]([C@@H](C)O)C(=O)N[C@@H](C)C(=O)N[C@@H]([C@@H](C)O)C(=O)N1)[C@@H](C)O)C(=O)N[C@@H](CC(C)C)C(=O)N1CCC[C@H]1C(=O)N1CCC[C@H]1C(=O)N[C@H](C(=O)N[C@@H](CC(N)=O)C(=O)N[C@H](C(=O)NCC(=O)N[C@@H](CO)C(=O)N[C@@H](CC(N)=O)C(=O)N[C@H](C(=O)N[C@@H](Cc1ccc(O)cc1)C(N)=O)[C@@H](C)O)C(C)C)[C@@H](C)O [compound 26] ({C20 diacid-γGlu}-EKCNTATCATQRLAEFLHHSSNNFGPILPPTNVGSNTY-NH2; disulfide 3-8),46,39
CC[C@H](C)[C@H](NC(=O)[C@@H]1CCCN1C(=O)CNC(=O)[C@H](Cc1ccccc1)NC(=O)[C@H](CC(N)=O)NC(=O)[C@H](CC(N)=O)NC(=O)[C@H](CO)NC(=O)[C@H](CO)NC(=O)[C@H](Cc1c[nH]cn1)NC(=O)[C@H](Cc1c[nH]cn1)NC(=O)[C@H](CC(C)C)NC(=O)[C@H](Cc1ccccc1)NC(=O)[C@H](CCC(=O)O)NC(=O)[C@H](C)NC(=O)[C@H](CC(C)C)NC(=O)[C@H](CCCNC(=N)N)NC(=O)[C@H](CCC(N)=O)NC(=O)[C@@H](NC(=O)[C@H](C)NC(=O)[C@@H]1CSSC[C@H](NC(=O)CC[C@H](NC(=O)CCCCCCCCCCCCCCCCCCC(=O)O)C(=O)O)C(=O)N[C@@H](CC(N)=O)C(=O)N[C@@H]([C@@H](C)O)C(=O)N[C@@H](C)C(=O)N[C@@H]([C@@H](C)O)C(=O)N1)[C@@H](C)O)C(=O)N[C@@H](CC(C)C)C(=O)N1CCC[C@H]1C(=O)N1CCC[C@H]1C(=O)N[C@H](C(=O)N[C@@H](CC(N)=O)C(=O)N[C@H](C(=O)NCC(=O)N[C@@H](CO)C(=O)N[C@@H](CC(N)=O)C(=O)N[C@H](C(=O)N[C@@H](Cc1ccc(O)cc1)C(N)=O)[C@@H](C)O)C(C)C)[C@@H](C)O [compound 28] ({C20 diacid-γGlu}-CNTATCATQRLAEFLHHSSNNFGPILPPTNVGSNTY-NH2; disulfide 1-6 (inferred); C-terminus assumed),39,36
CC[C@H](C)[C@H](NC(=O)[C@@H]1CCCN1C(=O)CNC(=O)[C@H](Cc1ccccc1)NC(=O)[C@H](CC(N)=O)NC(=O)[C@H](CC(N)=O)NC(=O)[C@H](CO)NC(=O)[C@H](CO)NC(=O)[C@H](Cc1c[nH]cn1)NC(=O)[C@H](Cc1c[nH]cn1)NC(=O)[C@H](CC(C)C)NC(=O)[C@H](Cc1ccccc1)NC(=O)[C@H](CCC(=O)O)NC(=O)[C@H](C)NC(=O)[C@H](CC(C)C)NC(=O)[C@H](CCCNC(=N)N)NC(=O)[C@H](CCC(N)=O)NC(=O)[C@@H](NC(=O)[C@H](C)NC(=O)[C@@H]1CSSC[C@H](NC(=O)[C@H](CCC(=O)O)NC(=O)CC[C@H](NC(=O)CCCCCCCCCCCCCCCCCCC(=O)O)C(=O)O)C(=O)N[C@@H](CC(N)=O)C(=O)N[C@@H]([C@@H](C)O)C(=O)N[C@@H](C)C(=O)N[C@@H]([C@@H](C)O)C(=O)N1)[C@@H](C)O)C(=O)N[C@@H](CC(C)C)C(=O)N1CCC[C@H]1C(=O)N1CCC[C@H]1C(=O)N[C@H](C(=O)N[C@@H](CC(N)=O)C(=O)N[C@H](C(=O)NCC(=O)N[C@@H](CO)C(=O)N[C@@H](CC(N)=O)C(=O)N[C@H](C(=O)N[C@@H](Cc1ccc(O)cc1)C(N)=O)[C@@H](C)O)C(C)C)[C@@H](C)O [compound 29] ({C20 diacid-γGlu}-ECNTATCATQRLAEFLHHSSNNFGPILPPTNVGSNTY-NH2; disulfide 2-7),15,5
CC[C@H](C)[C@H](NC(=O)[C@@H]1CCCN1C(=O)CNC(=O)[C@H](Cc1ccccc1)NC(=O)[C@H](CC(N)=O)NC(=O)[C@H](CC(N)=O)NC(=O)[C@H](CO)NC(=O)[C@H](CO)NC(=O)[C@H](Cc1c[nH]cn1)NC(=O)[C@H](Cc1c[nH]cn1)NC(=O)[C@H](CC(C)C)NC(=O)[C@H](Cc1ccccc1)NC(=O)[C@H](CCC(=O)O)NC(=O)[C@H](C)NC(=O)[C@H](CC(C)C)NC(=O)[C@H](CCCNC(=N)N)NC(=O)[C@H](CCC(N)=O)NC(=O)[C@@H](NC(=O)[C@H](C)NC(=O)[C@@H]1CSSC[C@H](NC(=O)[C@H](CCCCN)NC(=O)CC[C@H](NC(=O)CCCCCCCCCCCCCCCCC(=O)O)C(=O)O)C(=O)N[C@@H](CC(N)=O)C(=O)N[C@@H]([C@@H](C)O)C(=O)N[C@@H](C)C(=O)N[C@@H]([C@@H](C)O)C(=O)N1)[C@@H](C)O)C(=O)N[C@@H](CC(C)C)C(=O)N1CCC[C@H]1C(=O)N1CCC[C@H]1C(=O)N[C@H](C(=O)N[C@@H](CC(N)=O)C(=O)N[C@H](C(=O)NCC(=O)N[C@@H](CO)C(=O)N[C@@H](CC(N)=O)C(=O)N[C@H](C(=O)N[C@@H](Cc1ccc(O)cc1)C(N)=O)[C@@H](C)O)C(C)C)[C@@H](C)O [compound 46] ({C18 diacid-γGlu}-KCNTATCATQRLAEFLHHSSNNFGPILPPTNVGSNTY-NH2; disulfide 2-7 (inferred); C-terminus assumed),54,27
CC[C@H](C)[C@H](NC(=O)[C@@H]1CCCN1C(=O)CNC(=O)[C@H](Cc1ccccc1)NC(=O)[C@H](CC(N)=O)NC(=O)[C@H](CC(N)=O)NC(=O)[C@H](CO)NC(=O)[C@H](CO)NC(=O)[C@H](Cc1c[nH]cn1)NC(=O)[C@H](CCCNC(=N)N)NC(=O)[C@H](CC(C)C)NC(=O)[C@H](Cc1ccccc1)NC(=O)[C@H](CCC(=O)O)NC(=O)[C@H](C)NC(=O)[C@H](CC(C)C)NC(=O)[C@H](CCCNC(=N)N)NC(=O)[C@H](CCC(N)=O)NC(=O)[C@@H](NC(=O)[C@H](C)NC(=O)[C@@H]1CSSC[C@H](NC(=O)[C@H](CCCCN)NC(=O)CC[C@H](NC(=O)CCCCCCCCCCCCCCCCCCC(=O)O)C(=O)O)C(=O)N[C@@H](CC(N)=O)C(=O)N[C@@H]([C@@H](C)O)C(=O)N[C@@H](C)C(=O)N[C@@H]([C@@H](C)O)C(=O)N1)[C@@H](C)O)C(=O)N[C@@H](CC(C)C)C(=O)N1CCC[C@H]1C(=O)N1CCC[C@H]1C(=O)N[C@H](C(=O)N[C@@H](CC(N)=O)C(=O)N[C@H](C(=O)NCC(=O)N[C@@H](CO)C(=O)N[C@@H](CC(N)=O)C(=O)N[C@H](C(=O)N[C@@H](Cc1ccc(O)cc1)C(N)=O)[C@@H](C)O)C(C)C)[C@@H](C)O [compound 50] ({C20 diacid-γGlu}-KCNTATCATQRLAEFLRHSSNNFGPILPPTNVGSNTY-NH2; disulfide 2-7 (inferred); C-terminus assumed),30,8
CC[C@H](C)[C@H](NC(=O)[C@@H]1CCCN1C(=O)CNC(=O)[C@H](Cc1ccccc1)NC(=O)[C@H](CC(N)=O)NC(=O)[C@H](CC(N)=O)NC(=O)[C@H](CO)NC(=O)[C@H](CO)NC(=O)[C@H](Cc1c[nH]cn1)NC(=O)[C@H](Cc1c[nH]cn1)NC(=O)[C@H](CC(C)C)NC(=O)[C@H](Cc1ccccc1)NC(=O)[C@H](CCC(=O)O)NC(=O)[C@H](C)NC(=O)[C@H](CC(C)C)NC(=O)[C@H](CCCNC(=N)N)NC(=O)[C@H](CCC(N)=O)NC(=O)[C@@H](NC(=O)[C@H](C)NC(=O)[C@@H]1CSSC[C@H](NC(=O)[C@H](CCCCN)NC(=O)[C@H](CCC(=O)O)NC(=O)CC[C@H](NC(=O)CCCCCCCCCCCCCCCCCCC(=O)O)C(=O)O)C(=O)N[C@@H](CC(N)=O)C(=O)N[C@@H]([C@@H](C)O)C(=O)N[C@@H](C)C(=O)N[C@@H]([C@@H](C)O)C(=O)N1)[C@@H](C)O)C(=O)N[C@@H](CC(C)C)C(=O)N1CCC[C@H]1C(=O)N1CCC[C@H]1C(=O)N[C@H](C(=O)N[C@@H](CC(N)=O)C(=O)N[C@H](C(=O)NCC(=O)N[C@@H](CO)C(=O)N[C@@H](Cc1c[nH]cn1)C(=O)N[C@H](C(=O)N[C@@H](Cc1ccc(O)cc1)C(N)=O)[C@@H](C)O)C(C)C)[C@@H](C)O [compound 56] ({C20 diacid-γGlu}-EKCNTATCATQRLAEFLHHSSNNFGPILPPTNVGSHTY-NH2; disulfide 3-8),46,21
CC[C@H](C)[C@H](NC(=O)[C@@H]1CCCN1C(=O)CNC(=O)[C@H](Cc1ccccc1)NC(=O)[C@H](CC(N)=O)NC(=O)[C@H](CC(N)=O)NC(=O)[C@H](CO)NC(=O)[C@H](CO)NC(=O)[C@H](Cc1c[nH]cn1)NC(=O)[C@H](CCCNC(=N)N)NC(=O)[C@H](CC(C)C)NC(=O)[C@H](Cc1ccccc1)NC(=O)[C@H](CCC(=O)O)NC(=O)[C@H](C)NC(=O)[C@H](CC(C)C)NC(=O)[C@H](CCCNC(=N)N)NC(=O)[C@H](CCC(N)=O)NC(=O)[C@@H](NC(=O)[C@H](C)NC(=O)[C@@H]1CSSC[C@H](NC(=O)[C@H](CCCCN)NC(=O)[C@H](Cc2c[nH]cn2)NC(=O)CC[C@H](NC(=O)CCCCCCCCCCCCCCCCC(=O)O)C(=O)O)C(=O)N[C@@H](CC(N)=O)C(=O)N[C@@H]([C@@H](C)O)C(=O)N[C@@H](C)C(=O)N[C@@H]([C@@H](C)O)C(=O)N1)[C@@H](C)O)C(=O)N[C@@H](CC(C)C)C(=O)N1CCC[C@H]1C(=O)N1CCC[C@H]1C(=O)N[C@H](C(=O)N[C@@H](CC(N)=O)C(=O)N[C@H](C(=O)NCC(=O)N[C@@H](CO)C(=O)N[C@@H](Cc1c[nH]cn1)C(=O)N[C@H](C(=O)N[C@@H](Cc1ccc(O)cc1)C(N)=O)[C@@H](C)O)C(C)C)[C@@H](C)O [compound 71] ({C18 diacid-γGlu}-HKCNTATCATQRLAEFLRHSSNNFGPILPPTNVGSHTY-NH2; disulfide 3-8 (inferred); C-terminus assumed),10,0
